Data on 2 molecules can be found in publication PMC10221159, “Investigation of N-Acetyltransferase 2-Mediated Drug Interactions of Amifampridine: In Vitro and In Vivo Evidence of Drug Interactions with Acetaminophen” (Pharmaceutics, 2023).

The test system of test [1] is NAT2. The conditions noted are these: previous report; cited from earlier work.
Test [2] has as its target T1, NAT2 (Homo sapiens, UniProt P11245).
T1 construct: in vitro using S9 fractions obtained from human, rat, and mouse livers; from tissue; host or cells: human liver S9 fraction
T1 sequence (P11245 1-290): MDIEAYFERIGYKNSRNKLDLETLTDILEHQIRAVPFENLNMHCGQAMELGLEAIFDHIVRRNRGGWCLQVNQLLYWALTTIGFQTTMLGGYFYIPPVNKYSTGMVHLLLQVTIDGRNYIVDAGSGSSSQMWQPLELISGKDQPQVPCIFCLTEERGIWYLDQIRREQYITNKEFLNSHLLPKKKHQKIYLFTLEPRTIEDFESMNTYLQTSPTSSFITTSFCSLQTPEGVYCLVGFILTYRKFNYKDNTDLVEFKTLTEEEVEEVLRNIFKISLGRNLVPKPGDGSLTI
The experiment in a line: Inhibition of amifampridine acetylation to 3-N-acetylamifampridine by NAT2 inhibitors, human liver S9 fraction. The test is classed as biochemical. The conditions noted are these: amifampridine 50 μM, 15 min.
Method: Then, the NAT2 inhibitors (final concentrations of 0, 1, 5, 10, 50, 100, 500, 1000, and 5000 μM) and amifampridine (final concentration of 50 μM) were added to the reaction mixture and incubated for 15 min at 37 °C. An amount of 50 μL of the mixture was then transferred into the tube and mixed with 100 μL of IS (5 ng/mL ondansetron in acetonitrile). The mixture was vortexed and centrifuged at 14,000 rpm for 15 min at 4 °C. The supernatant was transferred into vials for HPLC-MS/MS analysis and the concentration of 3-N-acetylamifampridine was determined.

Take `COc1cc(C(C)=O)ccc1O` [apocynin]: the IC50 in test [1] was 690 µM; in test [2], 844 ± 160 µM.
For the molecule `CN/C(=N/CCSCc1nc[nH]c1C)NC#N` [cimetidine], the values for the IC50 in test [1] and in test [2] were 2060 µM and 2450 ± 258 µM, respectively.
